By IC50 is commonly meant the concentration that inhibits the measured activity by half.

Where a name gives a salt, the structure may show the parent alone.

This assay addresses human PDE10A full length (Homo sapiens (Human), UniProt Q9Y233). In words: human PDE10A full length Scintillation Proximity Assay (SPA). The format is biochemical. Particulars: PDE10A enzyme, 50 nM cGMP + 50 nM [3H]-cGMP, 20 minutes at room temperature. How it is done:
The following test was carried out in order to determine the activity of the compounds of the present invention. PDE10 activity of the compounds of the present invention was determined using a Scintillation Proximity Assay (SPA)-based method similar to the one previously described (Fawcett, L. et al., Proc Natl Acad Sci USA (2000) 97(7):3702-3707).
The human PDE10A full length assay was performed in 96-well micro titer plates. The reaction mixture of 50 μl contained 20 mM HEPES pH=7.5/10 mM MgCl2/0.05 mg/ml BSA (Sigma cat. #A-7906), 50 nM cGMP (Sigma, cat. #G6129) and 50 nM [3H]-cGMP (GE Healthcare, cat. #TRK392 S.A. 13.2 Ci/mmol), 3.75 ng/well PDE10A enzyme (Enzo Life Science, Lausen, Switzerland cat #SE-534) with or without a specific test compound. A range of concentrations of the potential inhibitor was used to generate data for calculating the concentration of inhibitor resulting in 50% of the effect (e.g. IC50, the concentration of the competitor inhibiting PDE10A activity by 50%). Non-specific activity was tested without the enzyme. The reaction was initiated by the addition of the substrate solution (cGMP and [3H]-cGMP) and allowed to progress for 20 minutes at room temperature. The reaction was terminated by adding 25 μl of YSi-SPA scintillation beads (GE Healthcare, cat. #RPNQ0150) in 18 mM zinc sulphate solution (stop reagent). After 1 h under shaking, the plate was centrifuged one minute at 170 g to allow beads to settle. Afterwards, radioactive counts were measured on a Perkin Elmer TopCount Scintillation plate reader.
In general terms: SPA uses beads or plates that emit light when radiolabelled molecules are held near them.

human PDE10A full length, sequence (Q9Y233 other isoform, or with tags, fused parts or gaps): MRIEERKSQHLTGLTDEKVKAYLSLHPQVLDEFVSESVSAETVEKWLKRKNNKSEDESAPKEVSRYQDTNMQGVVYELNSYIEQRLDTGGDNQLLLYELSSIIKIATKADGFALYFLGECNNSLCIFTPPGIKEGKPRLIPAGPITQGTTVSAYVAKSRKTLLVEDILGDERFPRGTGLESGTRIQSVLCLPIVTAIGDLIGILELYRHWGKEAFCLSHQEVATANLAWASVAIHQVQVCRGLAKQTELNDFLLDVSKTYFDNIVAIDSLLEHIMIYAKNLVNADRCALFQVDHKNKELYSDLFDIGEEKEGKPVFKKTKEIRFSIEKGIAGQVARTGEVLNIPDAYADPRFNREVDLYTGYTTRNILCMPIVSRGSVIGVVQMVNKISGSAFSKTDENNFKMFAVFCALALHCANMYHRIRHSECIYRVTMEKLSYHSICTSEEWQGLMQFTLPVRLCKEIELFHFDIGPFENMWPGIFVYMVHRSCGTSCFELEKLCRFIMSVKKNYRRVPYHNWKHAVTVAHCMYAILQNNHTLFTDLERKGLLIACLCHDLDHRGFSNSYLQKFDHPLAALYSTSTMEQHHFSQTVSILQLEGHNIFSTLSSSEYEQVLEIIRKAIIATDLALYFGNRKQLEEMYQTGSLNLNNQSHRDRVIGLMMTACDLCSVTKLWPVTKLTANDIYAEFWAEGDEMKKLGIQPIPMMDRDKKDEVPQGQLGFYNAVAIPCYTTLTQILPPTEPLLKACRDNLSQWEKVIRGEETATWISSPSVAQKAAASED

Consider `Cc1cc(N2CCCC2)nc(/C=C/c2ccc3ccccc3n2)n1` [Example 1, (E)-2-[2-(4-Methyl-6-pyrrolidin-1-yl-pyrimidin-2-yl)-vinyl]-quinoline], for which the IC50 was 0.53 µM.
As for `COc1c(C)cnc(/C=C/c2cccc(N3CCOCC3)n2)c1C` [Example 2, (E)-4-(6-(2-(4-Methoxy-3,5-dimethylpyridin-2-yl)vinyl)pyridin-2-yl)morpholine], the IC50 worked out at 8 µM.
For `COc1c(C)cnc(/C=C/c2cccc(N3CCCC3)n2)c1C` [Example 3, (E)-4-methoxy-3,5-dimethyl-2-(2-(6-(pyrrolidin-1-yl)pyridin-2-yl)vinyl)pyridine], the 50% inhibitory concentration (IC50) is 0.79 µM.
As for `CNc1cccc(CCc2nc(-c3ccccc3)cn2C)n1` [Example 4, Methyl-{6-[2-(1-methyl-4-phenyl-1H-imidazol-2-yl)-ethyl]-pyridin-2-yl}-amine], the IC50 is 4.06 µM.
To `COc1c(C)cnc(CCc2cccc(N3CCCC3)n2)c1C` [Example 5, 4-Methoxy-3,5-dimethyl-2-(2-(6-(pyrrolidin-1-yl)pyridin-2-yl)ethyl)pyridine] belongs 0.61 µM; to `Cn1cc(-c2ccccc2)nc1CCc1cccc(N2CCCC2)n1` [Example 6, 2-(2-(1-Methyl-4-phenyl-1H-imidazol-2-yl)ethyl)-6-(pyrrolidin-1-yl)pyridine], 1.84 µM.
On to `Cn1cc(-c2ccccc2)nc1CCc1cccc(N2CCOCC2)n1` [Example 7, 4-(6-(2-(1-Methyl-4-phenyl-1H-imidazol-2-yl)ethyl)pyridin-2-yl)morpholine], for which the IC50 was determined as 3.14 µM.
To `Cc1nc(C)c(CCc2cccc(N3CCCC3)n2)nc1C` [Example 8, 2,3,5-Trimethyl-6-(2-(6-(pyrrolidin-1-yl)pyridin-2-yl)ethyl)pyrazine] belongs 0.6 µM; to `Cc1nc2ccccc2nc1OCc1cccc(N2CCCC2)n1` [Example 9, 2-Methyl-3-((6-(pyrrolidin-1-yl)pyridin-2-yl)methoxy)quinoxaline], 0.03 µM.
To `Cc1nc2ccccc2nc1/C=C/c1cccc(N2CCCC2)n1` [Example 10, 2-Methyl-3-[(E)-2-(6-pyrrolidin-1-yl-pyridin-2-yl)-vinyl]-quinoxaline] belongs 0.09 µM.
Regarding `Cc1nc2ccccc2nc1CCc1cccc(N2CCCC2)n1` [Example 11, 2-Methyl-3-[2-(6-pyrrolidin-1-yl-pyridin-2-yl)-ethyl]-quinoxaline], the IC50 stood at 0.12 µM.
To `Cc1oc(-c2ccccc2)nc1CCc1cccc(N2CCCC2)n1` [Example 12, 2-[2-(5-Methyl-2-phenyl-oxazol-4-yl)-ethyl]-6-pyrrolidin-1-yl-pyridine] belongs 2 µM; to `Clc1ccc2nc(OCc3cccc(N4CCCC4)n3)nc(N3CCOCC3)c2c1` [Example 13, 4-(6-Chloro-2-((6-(pyrrolidin-1-yl)pyridin-2-yl)methoxy)quinazolin-4-yl)morpholine], 0.0025 µM; to `Cn1cc(-c2ccccc2)nc1CCc1cncc(N2CCCN2)n1` [Example 14, 2-(2-(1-Methyl-4-phenyl-1H-imidazol-2-yl)ethyl)-6-(pyrazolidin-1-yl)pyrazine hydrochloride], 0.12 µM.
To `Cc1nc2ccccc2nc1OCc1cccc(N2CCCCC2)n1` [Example 15, 2-Methyl-3-((6-(piperidin-1-yl)pyridin-2-yl)methoxy)quinoxaline] belongs 1.68 µM; to `c1cc(COc2nc(N3CCOCC3)c3ccccc3n2)nc(N2CCCC2)c1` [Example 16, 4-(2-((6-(Pyrrolidin-1-yl)pyridin-2-yl)methoxy)quinazolin-4-yl)morpholine], 0.05 µM.
For the compound `CN(C)c1nc(OCc2cccc(N3CCCC3)n2)nc2ccc(Cl)cc12` [Example 17, 6-Chloro-N,N-dimethyl-2-((6-(pyrrolidin-1-yl)pyridin-2-yl)methoxy)quinazolin-4-amine], the half-maximal inhibitory concentration (IC50) was found to be 0.007 µM.
On to `Cn1ncc2c(N3CCOCC3)nc(OCc3cccc(N4CCCC4)n3)nc21` [Example 18, 4-(1-Methyl-6-((6-(pyrrolidin-1-yl)pyridin-2-yl)methoxy)-1H-pyrazolo-[3,4-d]pyrimidin-4-yl)morpholine], for which the IC50 amounted to 0.276 µM.
For the compound `Clc1ccc2nc(/C=C/c3cccc(N4CCCC4)n3)nc(N3CCOCC3)c2c1` [Example 19, (E)-4-(6-Chloro-2-(2-(6-(pyrrolidin-1-yl)pyridin-2-yl)vinyl)quinazolin-4-yl)morpholine], the IC50 worked out at 0.0063 µM.
As to `Clc1ccc2nc(CCc3cccc(N4CCCC4)n3)nc(N3CCOCC3)c2c1` [Example 20, 4-(6-Chloro-2-(2-(6-(pyrrolidin-1-yl)pyridin-2-yl)ethyl)quinazolin-4-yl)morpholine], the IC50 came out at 0.0033 µM.
For the compound `c1cc(CCc2nc(N3CCOCC3)c3ccccc3n2)nc(N2CCCC2)c1` [Example 21, 4-(2-(2-(6-(Pyrrolidin-1-yl)pyridin-2-yl)ethyl)quinazolin-4-yl)morpholine], the IC50 amounted to 0.046 µM.
Consider `c1cc(COc2cc(N3CCOCC3)nc(-c3ccn[nH]3)n2)nc(N2CCCC2)c1` [Example 23, 4-[2-(2H-Pyrazol-3-yl)-6-(6-pyrrolidin-1-yl-pyridin-2-ylmethoxy)-pyrimidin-4-yl]-morpholine], for which the IC50 is 1.08 µM.
For the compound `c1cncc(-c2nc(OCc3cccc(N4CCCC4)n3)cc(N3CCOCC3)n2)c1` [Example 24, 4-(2-(Pyridin-3-yl)-6-((6-(pyrrolidin-1-yl)pyridin-2-yl)methoxy)-pyrimidin-4-yl)morpholine], the IC50 is 1.63 µM.
Take `CN(C)c1nc(/C=C/c2cccc(N3CCC(CO)C3)n2)nc2ccc(Cl)cc12` (stereo not drawn) [Example 25, (E)-(1-(6-(2-(6-Chloro-4-(dimethylamino)quinazolin-2-yl)vinyl)pyridin-2-yl)pyrrolidin-3-yl)methanol]: the IC50 was found to be 0.22 µM.
As to `O=c1[nH]c(CCc2cccc(N3CCCC3)n2)nc2cccc(Cl)c12` [Example 26, 5-Chloro-2-(2-(6-(pyrrolidin-1-yl)pyridin-2-yl)ethyl)quinazolin-4(3H)-one], the IC50 amounted to 0.4 µM.
To `COc1c(Cl)ccc2nc(CCc3cccc(N4CCCC4)n3)[nH]c(=O)c12` [Example 27, 6-Chloro-5-methoxy-2-(2-(6-(pyrrolidin-1-yl)pyridin-2-yl)ethyl)-quinazolin-4(3H)-one] belongs 0.47 µM.
With `Cc1nc2nc(CCc3cccc(N4CCCC4)n3)[nH]c(=O)c2n1C` [Example 28, 7,8-Dimethyl-2-(2-(6-(pyrrolidin-1-yl)pyridin-2-yl)ethyl)-1H-purin-6(7H)-one], the IC50 was determined as 2.73 µM.
To `O=c1[nH]c(CCc2cccc(N3CCCC3)n2)nc2ccc(Cl)cc12` [Example 29, 6-Chloro-2-(2-(6-(pyrrolidin-1-yl)pyridin-2-yl)ethyl)quinazolin-4(3H)-one] belongs 0.1 µM; to `CC1CCC(C)N1c1cccc(CCc2nc(N(C)C)c3ccccc3n2)n1` (stereo not drawn) [Example 30, 2-(2-(6-(2,5-Dimethylpyrrolidin-1-yl)pyridin-2-yl)ethyl)-N,N-dimethylquinazolin-4-amine], 2.3 µM; to `CN(C)c1nc(CCc2cccc(N3CCC(O)C3)n2)nc2ccc(Cl)cc12` (stereo not drawn) [Example 31, 1-(6-(2-(6-Chloro-4-(dimethylamino)quinazolin-2-yl)ethyl)pyridin-2-yl)pyrrolidin-3-ol], 0.77 µM.

For the origin of these results see patent US9540384B2, “Pyrrolidino heterocycles” (Hoffmann-La Roche Inc., priority 2012, dated 2017).
